From ChEMBL document CHEMBL1139926, “Identification of 6-substituted 4-arylsulfonyl-1,4-diazepane-2,5-diones as a novel scaffold for human chymase inhibitors” (Bioorg Med Chem Lett, 2007)

Legend:
Chymase = target: T1, Chymase (Homo sapiens, UniProt P23946); assay: Inhibition of human recombinant chymase
T1 sequence (P23946 whole entry): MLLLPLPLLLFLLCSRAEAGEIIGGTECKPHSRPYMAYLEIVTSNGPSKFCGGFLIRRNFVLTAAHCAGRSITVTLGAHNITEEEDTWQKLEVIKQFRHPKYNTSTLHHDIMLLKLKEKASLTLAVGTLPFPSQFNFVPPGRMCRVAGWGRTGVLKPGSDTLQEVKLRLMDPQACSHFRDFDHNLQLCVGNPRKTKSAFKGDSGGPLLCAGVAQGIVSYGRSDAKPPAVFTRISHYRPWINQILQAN

[1] = Inhibition of bovine pancreatic alpha chymotrypsin; design: species or system Bos taurus
Cathepsin G = target: T2, Cathepsin G (Homo sapiens, UniProt P08311); assay: Inhibition of human neutrophil cathepsin G
T2 sequence (P08311 whole entry): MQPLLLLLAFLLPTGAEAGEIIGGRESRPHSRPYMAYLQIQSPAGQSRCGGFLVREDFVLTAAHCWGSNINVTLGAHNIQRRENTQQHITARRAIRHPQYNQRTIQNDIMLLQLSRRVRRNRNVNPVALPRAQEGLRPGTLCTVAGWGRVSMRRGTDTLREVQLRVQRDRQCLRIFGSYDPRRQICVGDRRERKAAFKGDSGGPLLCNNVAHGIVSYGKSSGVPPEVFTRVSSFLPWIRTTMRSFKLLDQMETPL

[2] = Inhibition of bovine pancreatic trypsin; design: species or system Bos taurus
Neutrophil elastase = target: T3, Neutrophil elastase (Homo sapiens, UniProt P08246); assay: Inhibition of human neutrophil elastase
T3 sequence (P08246 whole entry): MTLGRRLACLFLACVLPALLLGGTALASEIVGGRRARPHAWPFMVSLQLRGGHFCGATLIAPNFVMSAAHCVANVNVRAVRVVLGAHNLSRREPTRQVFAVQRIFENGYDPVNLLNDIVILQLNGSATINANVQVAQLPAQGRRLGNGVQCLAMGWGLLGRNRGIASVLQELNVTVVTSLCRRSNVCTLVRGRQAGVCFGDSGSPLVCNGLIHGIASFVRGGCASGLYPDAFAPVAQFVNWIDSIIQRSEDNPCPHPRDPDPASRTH

Structure (SMILES)	IC50 (Chymase)	other results
COc1ccc(Cl)cc1CC1CNC(=O)CN(S(=O)(=O)c2ccc(Cl)cc2)C1=O (racemic)		IC50 [1]: 0.3 µM; IC50 (Cathepsin G): 2.9 µM; IC50 [2]: > 10 µM; IC50 (Neutrophil elastase): > 10 µM
O=C1CN(S(=O)(=O)c2ccc(Cl)cc2)C(=O)C(CC2CCCCC2)CN1 (racemic)	> 10 µM	
CC(C)C[C@H](NC(=O)[C@@H](NC(=O)N[C@@H](Cc1ccccc1)C(=O)O)C1CCN=C(N)N1)C(=O)N[C@H](C=O)Cc1ccccc1 (some centres undefined) [CHYMOSTATIN]	0.043 µM	

Second part, led by results:

IC50 (Chymase)	Structure (SMILES)	other results
> 10 µM	O=C1CN(S(=O)(=O)c2ccc(Cl)cc2)C(=O)C(Cc2ccc3ccccc3c2)CN1 (racemic)	
> 10 µM	O=C1CN(S(=O)(=O)c2ccc(Cl)cc2)C(=O)C(Cc2cccnc2)CN1 (racemic)	
> 10 µM	O=C1CN(S(=O)(=O)c2ccc(Cl)cc2)C(=O)C(Cc2ccncc2)CN1 (racemic)	
